Experimental data taken from patent US20200095192A1, “BIODEGRADABLE DIETHANOLAMINE DERIVATIVE CHELATING AGENT AND PREPARATION PROCESS THEREOF” (PTT Global Chemical Public Company Limited, priority 2017, published 2020).
Where two headings read alike, the source gives them in different places. One block for each compound: values may come before it.

Key:
[1] = mercury (Hg^2+); previous disclosed chelating agent; cited from earlier work
[2] = copper (Cu2+); previous disclosed chelating agent; cited from earlier work
[3] = magnesium (Mg^2+); previous disclosed chelating agent; cited from earlier work
[4] = calcium (Ca^2+); previous disclosed chelating agent; cited from earlier work
[5] = zinc (Zn^2+); previous disclosed chelating agent; cited from earlier work
[6] = cadmium (Cd^2+); previous disclosed chelating agent; cited from earlier work
[7] = manganese (Mn^2+); previous disclosed chelating agent; cited from earlier work
[8] = tin (Pb^2+); previous disclosed chelating agent; cited from earlier work
[9] = iron (Fe^3+); previous disclosed chelating agent; cited from earlier work
[10] = barium (Ba^2+); previous disclosed chelating agent; cited from earlier work
[11] = aluminium (Al^3+); previous disclosed chelating agent; cited from earlier work
[12] = cobolt (Co^2+); previous disclosed chelating agent; cited from earlier work
[13] = nickel (Ni^2+); previous disclosed chelating agent; cited from earlier work
[14] = iron (Fe^2+); previous disclosed chelating agent; cited from earlier work
[15] = strontium (Sr^2+); previous disclosed chelating agent; cited from earlier work
[16] = calcium chelation value of crude ligand; type: physicochemical; parameters: unit not given here; settings: crude of ligand 3-1 to ligand 3-7 without purification
Procedure: (§1) The diethanolamine derivatives and maleic anhydride can be synthesized by the reaction according to equation (I). The diethanolamine precursor, maleic anhydride, and selected catalyst were added into about 15-20 mL of dichloromethane solvent, wherein the amounts of each compounds were shown in table 1. Then, the obtained mixture was refluxed at the temperature of 50° C. until the reaction was completed. The amount of precursors being used was monitored. The solvent was removed from the obtained product. The obtained product was dissolved in 50 mL of distilled water and washed with dichloromethane for at least 3 times (30 mL each). After being washed, the obtained product was dried under vacuum and analyzed for its property using ^1H NMR spectroscopy and liquid chromatography mass spectrometry (LC/MS) technique.
as §1, with “succinic” for “maleic”, “(II).” for “(I).”, “3.” for “1.”, “in” for “in 50 mL of”, “water (50 mL)” for “water”
as §1, with “and succinic” for “and maleic”, “equation (III).” for “equation (I).”, “precursor, phthalic” for “precursor, maleic”, “table 5.” for “table 1.”, “in” for “in 50 mL of”, “water (50 mL)” for “water”

SMILES: O=C(O)CC(OCCN(CCOC(CC(=O)O)C(=O)O)[C@@H](CC(=O)O)C(=O)O)C(=O)O (stereo partly shown) [BCA6]
- stability constant [1]: 14.85
- stability constant [2]: 13.08
- stability constant [3]: 5.98
- stability constant [4]: 7.71
- stability constant [5]: 11.34
- stability constant [6]: 11.09
- stability constant [7]: 9.28
- stability constant [8]: 10.82
- stability constant [9]: 17.3
- stability constant [10]: 6.1
- stability constant [11]: 6.14

SMILES: O=C(O)C[C@H](NCCN[C@@H](CC(=O)O)C(=O)O)C(=O)O [EDDS, ethylene diamine-N,N-disuccinic acid]
- stability constant [2]: 18.4
- stability constant [12]: 13.6
- stability constant [3]: 6.0
- stability constant [13]: 16.7
- stability constant [4]: 4.6
- stability constant [5]: 13.4
- stability constant [6]: 16.4
- stability constant [8]: 12.7
- stability constant [9]: 22.0
- stability constant [10]: 3.0

SMILES: O=C(O)CN(CCO)CC(=O)O [EDG, ethanol diglycine]
- stability constant [1]: 19.8
- stability constant [2]: 11.8
- stability constant [12]: 8.0
- stability constant [3]: 6.2
- stability constant [13]: 18.2
- stability constant [14]: 13.4
- stability constant [4]: 4.7
- stability constant [5]: 15.2
- stability constant [6]: 7.4
- stability constant [7]: 10.0
- stability constant [8]: 13.6
- stability constant [9]: 21.6
- stability constant [10]: 3.4
- stability constant [11]: 7.7
- stability constant [15]: 5.2

SMILES: O=C(O)CN(CCN(CC(=O)O)CC(=O)O)CC(=O)O [EDTA, ethylenediamineteraacetic acid]
- stability constant [1]: 21.5
- stability constant [2]: 18.8
- stability constant [12]: 16.5
- stability constant [3]: 8.8
- stability constant [13]: 18.4
- stability constant [14]: 14.3
- stability constant [4]: 10.7
- stability constant [5]: 16.5
- stability constant [6]: 16.5
- stability constant [7]: 13.9
- stability constant [8]: 18.0
- stability constant [9]: 25.1
- stability constant [10]: 7.9
- stability constant [11]: 16.4
- stability constant [15]: 8.7

SMILES: O=C(O)CC(NC(CC(=O)O)C(=O)O)C(=O)O (stereo not shown) [IDS, iminodisuccinic acid]
- stability constant [1]: 14.9
- stability constant [2]: 13.1
- stability constant [12]: 10.5
- stability constant [3]: 6.1
- stability constant [13]: 12.2
- stability constant [14]: 8.2
- stability constant [4]: 5.2
- stability constant [5]: 10.8
- stability constant [6]: 8.4
- stability constant [7]: 7.7
- stability constant [8]: 11.0
- stability constant [9]: 15.2
- stability constant [10]: 2.1
- stability constant [11]: 14.1

SMILES: CC(C(=O)O)N(CC(=O)O)CC(=O)O (stereo not shown) [MGDA, methylglycinediacetic acid]
- stability constant [2]: 13.9
- stability constant [3]: 5.8
- stability constant [13]: 12.0
- stability constant [14]: 8.1
- stability constant [4]: 7.0
- stability constant [5]: 10.9
- stability constant [7]: 8.4
- stability constant [9]: 16.5
- stability constant [10]: 4.9

- calcium chelation value [16]: 81
SMILES: O=C(O)c1ccccc1C(=O)OCCN(CCOC(=O)c1ccccc1C(=O)O)C(=O)c1ccccc1C(=O)O [ligand 3-3]

- calcium chelation value [16]: 70
SMILES: O=C(O)c1ccccc1C(=O)OCCN(CCOC(=O)c1ccccc1C(=O)O)C(=O)c1ccccc1C(=O)O [ligand 3-4]

- calcium chelation value [16]: 75
SMILES: O=C(O)c1ccccc1C(=O)OCCN(CCOC(=O)c1ccccc1C(=O)O)C(=O)c1ccccc1C(=O)O [ligand 3-5]

- calcium chelation value [16]: 88
SMILES: O=C(O)c1ccccc1C(=O)OCCN(CCOC(=O)c1ccccc1C(=O)O)C(=O)c1ccccc1C(=O)O [ligand 3-6]

- calcium chelation value [16]: 76
SMILES: O=C(O)c1ccccc1C(=O)OCCN(CCOC(=O)c1ccccc1C(=O)O)C(=O)c1ccccc1C(=O)O [ligand 3-7]
